Results: PMC8378262 (Journal of controlled release : official journal of the …, 2021)
“And” between values parts separate entries of the source, which are not always exact repeats. Identical values can stand only once. Like-named read-outs stand apart in the source and are kept apart here.

Columns and labels:
[1] = Pharmacokinetics in rat plasma after intravenous administration; type: in vivo, Sprague Dawley rats
ROCK-II = ROCK-II (Homo sapiens, UniProt O75116); test: Cell-free Rho-associated kinase activity; type: biochemical
Chain of ROCK-II (O75116 whole entry, species assumed): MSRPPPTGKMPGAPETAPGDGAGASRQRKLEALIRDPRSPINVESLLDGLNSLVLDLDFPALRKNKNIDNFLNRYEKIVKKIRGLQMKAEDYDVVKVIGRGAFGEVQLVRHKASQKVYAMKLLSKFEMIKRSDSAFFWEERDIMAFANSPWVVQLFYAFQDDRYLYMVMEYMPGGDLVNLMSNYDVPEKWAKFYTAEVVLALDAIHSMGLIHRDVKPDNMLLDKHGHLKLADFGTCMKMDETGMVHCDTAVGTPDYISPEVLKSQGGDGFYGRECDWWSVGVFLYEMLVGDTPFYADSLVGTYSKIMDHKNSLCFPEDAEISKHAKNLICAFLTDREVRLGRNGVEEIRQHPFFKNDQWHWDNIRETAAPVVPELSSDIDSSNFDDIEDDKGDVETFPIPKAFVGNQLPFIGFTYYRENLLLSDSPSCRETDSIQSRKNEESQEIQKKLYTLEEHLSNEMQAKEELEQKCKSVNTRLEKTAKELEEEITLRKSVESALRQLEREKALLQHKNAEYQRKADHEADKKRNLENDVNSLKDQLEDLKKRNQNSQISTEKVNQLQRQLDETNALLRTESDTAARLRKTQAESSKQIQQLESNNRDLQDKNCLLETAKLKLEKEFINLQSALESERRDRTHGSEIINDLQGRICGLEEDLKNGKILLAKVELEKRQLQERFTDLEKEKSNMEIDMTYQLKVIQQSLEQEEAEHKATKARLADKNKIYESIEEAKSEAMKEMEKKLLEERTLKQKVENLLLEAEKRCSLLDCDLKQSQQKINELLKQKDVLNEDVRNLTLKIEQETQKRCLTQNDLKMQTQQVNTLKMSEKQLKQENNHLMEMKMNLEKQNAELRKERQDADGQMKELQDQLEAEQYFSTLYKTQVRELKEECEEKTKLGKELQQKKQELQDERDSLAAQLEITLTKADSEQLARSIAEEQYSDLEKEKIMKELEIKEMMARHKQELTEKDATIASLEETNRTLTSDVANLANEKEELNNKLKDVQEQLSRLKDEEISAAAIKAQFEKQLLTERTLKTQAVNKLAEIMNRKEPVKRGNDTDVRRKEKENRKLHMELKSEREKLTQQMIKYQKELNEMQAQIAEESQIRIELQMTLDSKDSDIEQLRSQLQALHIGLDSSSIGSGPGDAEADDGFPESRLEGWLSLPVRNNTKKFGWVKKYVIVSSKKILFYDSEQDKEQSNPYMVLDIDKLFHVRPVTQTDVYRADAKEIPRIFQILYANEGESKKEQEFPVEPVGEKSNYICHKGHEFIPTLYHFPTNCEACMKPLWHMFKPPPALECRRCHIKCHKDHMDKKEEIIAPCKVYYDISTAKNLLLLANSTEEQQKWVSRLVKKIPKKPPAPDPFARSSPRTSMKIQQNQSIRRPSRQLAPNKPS

PAH-SMC = test: Antiproliferative effects, Cell Counting Kit-8, PAH-SMC; type: cell-based, human
cGMP [2] = test: Intracellular cGMP; type: cell-based, human; settings: PAH-ECs
phospho-MYPT1 [3] = test: Myosin phosphatase-targeting protein phosphorylation; type: cell-based, human; settings: PAH-SMCs, 1.0 μM, 24 h
phospho-MYPT1 [4] = test: as above; type: cell-based, human; settings: PAH-ECs, 1.0 μM
[5] = molecular target: T1, bactosomal human NADPH-CYP reductase (Homo sapiens, UniProt P16435); test: Enzymatic reduction assay of FasPRO, LC-MS/MS; type: in vitro ADME
T1 sequence (P16435 1-677): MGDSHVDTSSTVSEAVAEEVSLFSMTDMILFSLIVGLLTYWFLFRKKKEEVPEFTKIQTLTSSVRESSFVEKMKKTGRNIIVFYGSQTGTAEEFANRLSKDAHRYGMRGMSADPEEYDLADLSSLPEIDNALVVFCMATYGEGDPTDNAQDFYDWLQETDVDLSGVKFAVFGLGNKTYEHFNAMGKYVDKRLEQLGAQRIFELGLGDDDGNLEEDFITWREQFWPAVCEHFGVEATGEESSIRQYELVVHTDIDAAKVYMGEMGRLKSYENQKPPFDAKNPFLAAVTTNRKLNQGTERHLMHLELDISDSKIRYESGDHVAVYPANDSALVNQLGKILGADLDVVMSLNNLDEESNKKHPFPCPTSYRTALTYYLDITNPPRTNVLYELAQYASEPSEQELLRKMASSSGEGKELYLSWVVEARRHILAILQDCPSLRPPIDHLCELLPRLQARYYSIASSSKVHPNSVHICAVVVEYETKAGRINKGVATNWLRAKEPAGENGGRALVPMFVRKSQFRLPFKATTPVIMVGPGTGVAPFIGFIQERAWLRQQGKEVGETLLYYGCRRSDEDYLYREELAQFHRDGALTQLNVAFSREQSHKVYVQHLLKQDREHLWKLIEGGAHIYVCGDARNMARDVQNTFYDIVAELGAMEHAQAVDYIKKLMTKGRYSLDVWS

N-SMC = test: Antiproliferative effects, Cell Counting Kit-8, N-SMC; type: cell-based, human
cGMP [6] = test: Intracellular cGMP; type: cell-based, human; settings: for intracellular level of cGMP: PAH-SMCs, 0.1–0.001 μM
PAH-SMCs = test: Bioreduction of FasPRO in cultured PAH-SMCs; type: cell-based, human
PAH-EC = test: cells; type: cell-based; settings: Homo sapiens, 24 h
PAH-ECs = test: Bioreduction of FasPRO in cultured PAH-ECs; type: cell-based, human; settings: 24 h incubation
[7] = male, Sprague-Dawley, rat, plasma, iv, 3 mg/kg
[8] = Homo sapiens, 24 h, read-out: N-SMC (IC50) Normoxia
[9] = Homo sapiens, 24 h, read-out: PAH-SMC (IC50) Normoxia, normoxia, 24 h treatment
[10] = read-out: PAH-EC (IC50) Hypoxia
[11] = read-out: PAH-EC (IC50) Normoxia

Row | SMILES | AUC(0-inf) [1, 7] | C0 [1, 7] | Vd [1, 7] | clearance [1, 7] | intracellular level of cGMP (cGMP [2]; hypoxia) | intracellular level of cGMP (cGMP [2]; normoxia) | hypoxia-driven phosphorylation of MYPT1 (phospho-MYPT1 [3]) | hypoxia-driven phosphorylation of MYPT1 (phospho-MYPT1 [4]) | IC50 (N-SMC; [8]) | intracellular level of cGMP (cGMP [6]; hypoxia) | intracellular level of cGMP (cGMP [6]; normoxia) | IC50 (PAH-SMC; [9]) | IC50 (PAH-EC; [10]) | IC50 (PAH-EC; [11]) | other results
1 | O=c1[nH]ccc2c(S(=O)(=O)N3CCCNCC3)cccc12 [FasOH, reference compound] | – | – | – | – | – | – | – | – | – | – | – | – | – | – | maximum plasma concentration (Cmax) of FasOH as share of that of the parent drug ([1]; rats given intravenous fasudil 3 mg/kg): 37~52%; inhibition of the kinase activity of ROCK-II (comparison in words) (ROCK-II; 1.0 mU ROCK-II, 10 μM ATP): equal potency; IC50 (PAH-SMC; Homo sapiens, 24 h, read-out: PAH-SMC (IC50) Hypoxia): 10.3 ± 2.6 µM; IC50 (PAH-SMC; Homo sapiens, 24 h, read-out: PAH-SMC (IC50) Normoxia): 6.9 µM
2 | O=[N+]([O-])c1ccc(COc2nccc3c(S(=O)(=O)N4CCCNCC4)cccc23)cc1 [FasPRO, 5-((1,4-diazepan-1-yl)sulfonyl)-1-((4-nitrobenzyl)oxy)isoquinoline] | 951 ± 137 ng·h/mL | 471 ± 122 ng/mL | 10.1 ± 4 L/kg | 18.3 mL/min/kg | dose-dependently increased | did not improve cGMP secretion | reversed the process | reversed the process | 248 ± 28.9 µM | dose-dependently increased | did not improve cGMP secretion | 53.5 µM | 25.4 ± 4.8 µM | 2720 ± 50.9 µM | terminal half-life of FasPRO relative to that of fasudil ([1]; Sprague-Dawley rats, intravenous, 3 mg/kg): 36 fold and ~ 36 fold; half-life ([1]; male, Sprague-Dawley, rat, plasma, iv, 3 mg/kg, t1/2, Sprague-Dawley rats): > 7 h; fasudil in the blood of FasPRO-treated rats ([1]; remaining two of four rats, FasPRO iv 3 mg/kg): not detectable; phospho-MYPT-1 level (phospho-MYPT1 [3]; normoxia): did not cause any changes; phospho-MYPT-1 level (phospho-MYPT1 [4]; normoxia): did not cause any changes; reduction in ROCK-II kinase activity on addition of the 4-nitrobenzyl group to the hydroxyl group of FasOH (ROCK-II; relative to FasOH): 15 fold; prodrug converted into FasOH or fasudil ([5]; hypoxia (0.1% O2), after 24 h of reaction): More than 60%; reduction of FasPRO by the reductase ([5]; normoxia, any of the time points): did not occur; IC50 (N-SMC; Homo sapiens, 24 h, read-out: N-SMC (IC50) Hypoxia): 1.04 ± 0.1 µM; activation of FasPRO (PAH-SMCs; 0.1% O2): activated; activation of FasPRO (PAH-SMCs; 1% and 10% O2): not at 1% and 10% O2; fragments of FasPRO after bioreduction in cell lysate (PAH-SMCs; 12 h, hypoxia): FasOH (major fragment) or fasudil (minor fragment); content of FasPRO in cells (PAH-SMCs; hypoxia, 24 h incubation, versus normoxia): decreased; fragmentation of FasPRO in cells (PAH-SMCs; normoxia, 24 h incubation): did not undergo significant fragmentation; concentrations at which an antiproliferative effect was observed (PAH-SMC; normoxia, cells not given): > 100 µM; content of FasPRO in cells (PAH-ECs; hypoxia, versus normoxia): decreased; fragmentation of FasPRO in cells (PAH-ECs; normoxia): did not undergo significant fragmentation
3 | O=S(=O)(c1cccc2cnccc12)N1CCCNCC1 [Fasudil, reference compound] | 363 ± 54.1 ng·h/mL | 1360 ± 368 ng/mL | 0.9 ± 0.2 L/kg | 46.7 mL/min/kg | dose-dependently increased | dose-dependently increased | reversed the process | reversed the process | 2.8 ± 0.6 µM | dose-dependently increased | dose-dependently increased | 4.9 µM | 34.1 ± 5.9 µM | 16 ± 1.2 µM | IC50 (N-SMC; read-out: N-SMC (IC50) Hypoxia, hypoxia (0.1% O2), 24 h treatment): 1.68 ± 0.5 µM; increase in cGMP levels in PAH-SMCs compared to PAH-ECs (cGMP [6]; fasudil preincubation): 5 fold; IC50 (PAH-SMC; read-out: PAH-SMC (IC50) Normoxia, normoxia, 24 h treatment): 4.95 ± 1.3 µM
